The values below come from patent publication US20070004660A1, “Synergistic Modulation of Flt3 Kinase Using Alkylquinolines and Alkylquinazolines” (priority 2005, published 2007).

The experiment concerns the target T1, wild-type FLT3 receptor (Homo sapiens, UniProt P36888).
T1 construct: host or cells: Baf3 (murine B cell lymphoma line), stably transfected
T1 sequence (P36888 27-993): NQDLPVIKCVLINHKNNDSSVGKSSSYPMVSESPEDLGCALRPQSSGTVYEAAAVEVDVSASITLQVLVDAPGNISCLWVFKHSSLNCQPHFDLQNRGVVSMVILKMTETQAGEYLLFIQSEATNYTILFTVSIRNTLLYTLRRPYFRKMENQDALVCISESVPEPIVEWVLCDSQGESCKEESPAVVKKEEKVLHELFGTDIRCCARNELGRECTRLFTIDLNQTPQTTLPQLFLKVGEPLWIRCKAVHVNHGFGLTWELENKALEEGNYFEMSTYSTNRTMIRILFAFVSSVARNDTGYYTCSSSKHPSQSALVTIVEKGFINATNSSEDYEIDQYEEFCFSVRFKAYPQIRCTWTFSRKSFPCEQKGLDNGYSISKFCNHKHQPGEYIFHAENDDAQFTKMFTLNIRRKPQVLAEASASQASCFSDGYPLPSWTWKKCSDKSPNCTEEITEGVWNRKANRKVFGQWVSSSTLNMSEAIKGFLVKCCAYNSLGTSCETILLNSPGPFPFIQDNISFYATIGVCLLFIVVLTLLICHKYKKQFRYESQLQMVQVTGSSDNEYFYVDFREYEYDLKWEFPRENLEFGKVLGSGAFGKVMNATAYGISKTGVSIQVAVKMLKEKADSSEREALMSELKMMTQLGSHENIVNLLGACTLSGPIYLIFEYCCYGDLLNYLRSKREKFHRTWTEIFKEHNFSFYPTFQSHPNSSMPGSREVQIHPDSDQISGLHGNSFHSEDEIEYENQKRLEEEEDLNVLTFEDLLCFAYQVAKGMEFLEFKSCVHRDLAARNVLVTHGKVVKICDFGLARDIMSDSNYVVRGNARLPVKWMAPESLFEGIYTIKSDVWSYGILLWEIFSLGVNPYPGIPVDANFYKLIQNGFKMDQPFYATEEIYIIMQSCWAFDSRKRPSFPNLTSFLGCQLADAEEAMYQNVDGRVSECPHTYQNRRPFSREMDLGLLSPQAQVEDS
The experiment is described as follows: Cell-based FLT3 receptor ELISA (FLT ligand-induced phosphorylation in Baf3 FLT3 cells). The note with it: 100 ng/mL Flt ligand, uncertainty ±20%. The method, then: Specific cellular inhibition of FLT ligand-induced wild-type FLT3 phosphorylation was measured in the following manner: Baf3 FLT3 cells overexpressing the FLT3 receptor were obtained from Dr. Michael Heinrich (Oregon Health and Sciences University). The Baf3 FLT3 cell lines were created by stable transfection of parental Baf3 cells (a murine B cell lymphoma line dependent on the cytokine IL-3 for growth) with wild-type FLT3. Cells were selected for their ability to grow in the absence of IL-3 and in the presence of FLT3 ligand. Baf3 cells were maintained in RPMI 1640 with 10% FBS, penn/strep and 10 ng/ml FLT ligand at 37° C., 5% CO2. To measure direct inhibition of the wild-type FLT3 receptor activity and phosphorylation a sandwich ELISA method was developed similar to those developed for other RTKs (see Sadick, M D, Sliwkowski, M X, Nuijens, A, Bald, L, Chiang, N, Lofgren, J A, Wong W L T. Analysis of Heregulin-Induced ErbB2 Phosphorylation with a High-Throughput Kinase Receptor Activation Enzyme-Linked Immunsorbent Assay, Analytical Biochemistry. 1996; 235:207-214 and Baumann C A, Zeng L, Donatelli R R, Maroney A C. Development of a quantitative, high-throughput cell-based enzyme-linked immunosorbent assay for detection of colony-stimulating factor-1 receptor tyrosine kinase inhibitors. J Biochem Biophys Methods. 2004; 60:69-79.). 200 μL of Baf3FLT3 cells (1×10^6 /mL) were plated in 96 well dishes in RPMI 1640 with 0.5% serum and 0.01 ng/mL IL-3 for 16 hours prior to 1 hour compound or DMSO vehicle incubation. Cells were treated with 100 ng/mL Flt ligand (R&D Systems Cat# 308-FK) for 10 min. at 37° C. Cells were pelleted, washed and lysed in 100 ul lysis buffer (50 mM Hepes, 150 mM NaCl, 10% Glycerol, 1% Triton-X-100, 10 mM NaF, 1 mM EDTA, 1.5 mM MgCl2, 10 mM NaPyrophosphate) supplemented with phosphatase (Sigma Cat# P2850) and protease inhibitors (Sigma Cat #P8340). Lysates were cleared by centrifugation at 1000×g for 5 minutes at 4° C. Cell lysates were transferred to white wall 96 well microtiter (Costar #9018) plates coated with 50 ng/well anti-FLT3 antibody (Santa Cruz Cat# sc-480) and blocked with SeaBlock reagent (Pierce Cat#37527). Lysates were incubated at 4° C. for 2 hours. Plates were washed 3× with 200 ul/well PBS/0.1% Triton-X-100. Plates were then incubated with 1:8000 dilution of HRP-conjugated anti-phosphotyrosine antibody (Clone 4G10, Upstate Biotechnology Cat#16-105) for 1 hour at room temperature. Plates were washed 3× with 200 ul/well PBS/0.1% Triton-X-100. Signal detection with Super Signal Pico reagent (Pierce Cat#37070) was done according to manufacturer's instruction with a Berthold microplate luminometer. All data points are an average of triplicate samples. […] Inhibition and IC50 data analysis was done with GraphPad Prism using a non-linear regression fit with a multiparamater, sigmoidal dose-response (variable slope) equation.
`CN1CCN(CCCOc2ccc3c(C4CCN(C(=O)Nc5cnc(N6CCCC6)nc5)CC4)ncnc3c2)CC1` [Example 105, 4-{7-[3-(4-Methyl-piperazin-1-yl)-propoxy]-quinazolin-4-yl}-piperidine-1-carboxylic acid (2-pyrrolidin-1-yl-pyrimidin-5-yl)-amide]: the IC50 is 98 nM. This counts as double-digit nanomolar.

Regarding `CC(C)Oc1ccc(NC(=O)N2CCC(c3ncnc4cc(N(C)C)ccc34)CC2)cc1` [Example 100, 4-(7-Dimethylamino-quinazolin-4-yl)-piperidine-1-carboxylic acid (4-isopropoxy-phenyl)-amide], the IC50 came to 8 nM. This IC50 lies about 12-fold lower than the previous one.

Regarding `CC(C)Oc1ccc(NC(=O)N2CCC(c3ncnc4ccc(OCCCN5CCCC5=O)cc34)CC2)cc1` [Example 101, 4-{6-[3-(2-Oxo-pyrrolidin-1-yl)-propoxy]-quinazolin-4-yl}-piperidine-1-carboxylic acid (4-isopropoxy-phenyl)-amide], half-maximal inhibition (IC50) required 42 nM.

Take `COc1cc2ncnc(C3CCN(CC(=O)Nc4ccc(OC(C)C)cc4)CC3)c2cc1OC` [Example 10, 2-[4-(6,7-Dimethoxy-quinazolin-4-yl)-piperidin-1-yl]-N-(4-isopropoxy-phenyl)-acetamide]: the IC50 came out at 31 nM.

As to `COc1cc2ncnc(C3CCN(C(=O)Nc4ccc(OC(F)F)cc4)CC3)c2cc1OC` [Example 51, 4-(6,7-Dimethoxy-quinazolin-4-yl)-piperidine-1-carboxylic acid (4-difluoromethoxy-phenyl)-amide], the IC50 came out at 542 nM.

The molecule `O=C1CCCN1CCOc1ccc2c(C3CCN(C(=O)Nc4cnc(N5CCCC5)nc4)CC3)ncnc2c1` [Example 84, 4-{7-[2-(2-Oxo-pyrrolidin-1-yl)-ethoxy]-quinazolin-4-yl}-piperidine-1-carboxylic acid (2-pyrrolidin-1-yl-pyrimidin-5-yl)-amide] came in with an IC50 of 80 nM. Compared with the last molecule, the IC50 is about 6.8-fold lower.

Consider `O=C(Nc1ccc(N2CCOCC2)cc1)N1CCC(c2ncnc3cc(OCCC4CCCCN4)ccc23)CC1` (stereo not drawn) [Example 98, 4-[7-(2-Piperidin-2-yl-ethoxy)-quinazolin-4-yl]-piperidine-1-carboxylic acid (4-morpholin-4-yl-phenyl)-amide], for which the IC50 amounted to 86 nM.

The molecule `O=C(Nc1ccc(N2CCOCC2)cc1)N1CCC(c2ncnc3cc(OCCCN4CCCC4)ccc23)CC1` [Example 124, 4-[7-(3-Pyrrolidin-1-yl-propoxy)-quinazolin-4-yl]-piperidine-1-carboxylic acid (4-morpholin-4-yl-phenyl)-amide] came in with a half-maximal inhibitory concentration (IC50) of 63 nM.

Molecule `CC(C)Oc1ccc(NC(=O)N2CCC(c3ncnc4cc(OCC5CCN(C)CC5)ccc34)CC2)cc1` [Example 93, 4-[7-(1-Methyl-piperidin-4-ylmethoxy)-quinazolin-4-yl]-piperidine-1-carboxylic acid (4-isopropoxy-phenyl)-amide] displayed an IC50 of 1 nM.

With `O=C(Nc1ccc(N2CCCC2)nc1)N1CCC(c2ncnc3cc(OCCN4CCOCC4)ccc23)CC1` [Example 95, 4-[7-(2-Morpholin-4-yl-ethoxy)-quinazolin-4-yl]-piperidine-1-carboxylic acid (6-pyrrolidin-1-yl-pyridin-3-yl)-amide], the IC50 is 25 nM.

On to `CN1CCN(CCCOc2ccc3c(C4CCN(C(=O)Nc5ccc(OC6CCCC6)nc5)CC4)ncnc3c2)CC1` [Example 82, 4-{7-[3-(4-Methyl-piperazin-1-yl)-propoxy]-quinazolin-4-yl}-piperidine-1-carboxylic acid (6-cyclopentyloxy-pyridin-3-yl)-amide], for which the IC50 is 63 nM.

In turn, `CS(=O)(=O)N1CCN(CCCOc2ccc3c(C4CCN(C(=O)Nc5ccc(N6CCOCC6)cc5)CC4)ncnc3c2)CC1` [Example 118, 4-{7-[3-(4-Methanesulfonyl-piperazin-1-yl)-propoxy]-quinazolin-4-yl}-piperidine-1-carboxylic acid (4-morpholin-4-yl-phenyl)-amide] returned an IC50 of 10 nM.

The molecule `O=C1CCCN1CCOc1ccc2c(C3CCN(C(=O)Nc4ccc(N5CCOCC5)nc4)CC3)ncnc2c1` [Example 83, 4-{7-[2-(2-Oxo-pyrrolidin-1-yl)-ethoxy]-quinazolin-4-yl}-piperidine-1-carboxylic acid (6-morpholin-4-yl-pyridin-3-yl)-amide] yielded an IC50 of 37 nM.

`CC(C)Oc1ccc(NC(=O)N2CCC(c3ncnc4ccc(C#CCO)cc34)CC2)cc1` [Example 12, 4-[6-(3-Hydroxy-prop-1-ynyl)-quinazolin-4-yl]-piperidine-1-carboxylic acid (4-isopropoxy-phenyl)-amide] yielded an IC50 of 36 nM.

The molecule `CN1CCC(COc2ccc3c(C4CCN(C(=O)Nc5ccc(N6CCCC6)cc5)CC4)ncnc3c2)CC1` [Example 109, 4-[7-(1-Methyl-piperidin-4-ylmethoxy)-quinazolin-4-yl]-piperidine-1-carboxylic acid (4-pyrrolidin-1-yl-phenyl)-amide] returned an IC50 of 10 nM.

`CN1CCN(CCCOc2ccc3c(C4CCN(C(=O)Nc5ccc(N6CCOCC6)cc5)CC4)ncnc3c2)CC1` [Example 73, 4-{7-[3-(4-Methyl-piperazin-1-yl)-propoxy]-quinazolin-4-yl}-piperidine-1-carboxylic acid (4-morpholin-4-yl-phenyl)-amide] gave an IC50 of 92 nM.

As to `CS(=O)(=O)NCCCOc1ccc2c(C3CCN(C(=O)Nc4ccc(N5CCOCC5)nc4)CC3)ncnc2c1` [Example 87, 4-[7-(3-Methanesulfonylamino-propoxy)-quinazolin-4-yl]-piperidine-1-carboxylic acid (6-morpholin-4-yl-pyridin-3-yl)-amide], inhibition was half-maximal at 23 nM (IC50).

In the case of `CC(C)Oc1ccc(NC(=O)N2CCC(c3ncnc4cc(N5CCN(C)CC5)ccc34)CC2)cc1` [Example 103, 4-[7-(4-Methyl-piperazin-1-yl)-quinazolin-4-yl]-piperidine-1-carboxylic acid (4-isopropoxy-phenyl)-amide], half-maximal inhibition (IC50) required 13 nM.

For `CC(C)Oc1ccc(NC(=O)N2CCC(c3ccnc4ccccc34)CC2)cc1` [Example 6, 4-Quinolin-4-yl-piperidine-1-carboxylic acid (4-isopropoxy-phenyl)-amide], the midpoint of inhibition, the IC50, lay at 40 nM.

Take `COc1cc2ncnc(C3CCN(C(=O)NC4CCC(C(C)(C)C)CC4)CC3)c2cc1OC` (stereo not drawn) [Example 54, 4-(6,7-Dimethoxy-quinazolin-4-yl)-piperidine-1-carboxylic acid (4-tert-butyl-cyclohexyl)-amide]: inhibition was half-maximal at 266 nM (IC50). Compared with the last molecule, the IC50 is about 6.7-fold higher.

As to `CC(C)Oc1ccc(NC(=O)N2CCC(c3ncnc4cc(OCCCNS(C)(=O)=O)ccc34)CC2)cc1` [Example 65, 4-[7-(3-Methanesulfonylamino-propoxy)-quinazolin-4-yl]-piperidine-1-carboxylic acid (4-isopropoxy-phenyl)-amide], it took 37 nM to reach half-maximal inhibition (IC50). Compared with the last molecule, the IC50 is about 7.2-fold lower.
